In patent publication US8193373B2, “Therapeutic compounds” (Allergan, Inc., priority 2006, dated 2012) one finds Ki and EC50 data, which are given here for one compound.

Assay [1] addresses T1, EP2 receptor (Homo sapiens, UniProt P43116). Nature of the assay: Binding at the EP2 receptor (assays described in WO 2005/044501). An excerpt:
(§1) The compound above has the following activity at the EP2 receptor according to the assays described in WO 2005/044501.

Assay [2] has as its target T1, EP2 receptor. Nature of the assay: cAMP assay at the EP2 receptor (assays described in WO 2005/044501). The assay is classed as cell-based.
From the text: as §1

One may read the Ki as a measure of affinity in units of concentration, obtained from inhibition or displacement. High values mean lower affinity, low ones higher affinity. Broadly, the EC50 is the concentration giving half of the maximal effect. Low readings indicate higher potency in that assay, high ones lower potency in that assay.

T1 sequence (P43116 whole entry): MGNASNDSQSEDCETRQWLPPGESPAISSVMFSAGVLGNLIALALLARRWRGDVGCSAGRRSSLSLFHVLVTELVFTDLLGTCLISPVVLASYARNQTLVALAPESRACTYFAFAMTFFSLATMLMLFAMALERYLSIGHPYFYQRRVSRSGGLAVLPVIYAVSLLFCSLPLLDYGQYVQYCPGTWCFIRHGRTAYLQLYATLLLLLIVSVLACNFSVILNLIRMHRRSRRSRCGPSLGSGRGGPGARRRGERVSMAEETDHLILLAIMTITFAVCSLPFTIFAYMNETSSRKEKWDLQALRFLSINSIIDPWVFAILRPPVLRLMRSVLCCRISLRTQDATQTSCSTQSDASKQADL

For `N#C[C@@H]1C[C@@H](O)[C@H](/C=C/CC(O)C2(Cc3ccc(Cl)s3)CCC2)[C@H]1C/C=C\CCCC(=O)O` (stereo partly drawn) [(Z)-7-((1S,2R,3R,5R)-2-((E)-4-(1-((5-chlorothiophen-2-yl)methyl)cyclobutyl)-4-hydroxybut-1-enyl)-5-cyano-3-hydroxycyclopentyl)hept-5-enoic acid], the Ki at EP2 receptor [1] came to 116 nM. This compound also returned an EC50 on EP2 receptor [2] of 3 nM.
